{"source": "patent US20130310347A1", "about": "“MULTI-MODALITY MOLECULAR IMAGING HIGH-THROUGHPUT ASSAY FOR IDENTIFYING HEAT SHOCK PROTEIN 90 (HSP90) INHIBITORS” (The Board of Trustees of the Leland Stanford Junior …, priority 2012, published 2013)", "key": {"Hsp90β/p23 interactions": {"biological_target": "T1, Hsp90β/p23 interactions (Homo sapiens, UniProt P08238)", "T1 construct": "expressed in transfected cells; also with FL-eGFP reporter (293Tβ-FG) and as xenografts in nude mice", "T1 sequence (P08238 whole entry)": "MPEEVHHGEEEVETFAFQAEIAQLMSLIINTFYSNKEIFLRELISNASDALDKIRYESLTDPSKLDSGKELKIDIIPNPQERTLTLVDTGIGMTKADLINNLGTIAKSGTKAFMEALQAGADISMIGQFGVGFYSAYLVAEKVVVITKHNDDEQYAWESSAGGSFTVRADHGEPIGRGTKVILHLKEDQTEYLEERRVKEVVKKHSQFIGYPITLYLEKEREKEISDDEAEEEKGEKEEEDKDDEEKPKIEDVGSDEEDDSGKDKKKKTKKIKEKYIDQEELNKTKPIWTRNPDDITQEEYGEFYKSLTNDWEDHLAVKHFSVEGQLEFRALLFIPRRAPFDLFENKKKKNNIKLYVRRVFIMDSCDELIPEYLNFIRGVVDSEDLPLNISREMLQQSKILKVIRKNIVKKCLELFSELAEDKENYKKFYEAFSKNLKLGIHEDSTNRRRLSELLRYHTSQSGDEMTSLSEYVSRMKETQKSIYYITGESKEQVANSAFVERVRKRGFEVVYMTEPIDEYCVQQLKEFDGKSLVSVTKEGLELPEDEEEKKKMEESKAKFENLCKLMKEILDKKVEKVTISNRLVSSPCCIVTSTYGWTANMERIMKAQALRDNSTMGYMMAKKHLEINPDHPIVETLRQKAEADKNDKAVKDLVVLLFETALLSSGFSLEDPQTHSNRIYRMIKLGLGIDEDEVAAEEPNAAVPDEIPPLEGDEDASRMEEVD", "test": "RL/FL bioluminescence imaging of 293T xenografts in living mice", "assay_type": "in vivo", "settings": "CP9 80 mg/kg i.p., p>0.05", "method": "(§1) Maximum radiance (photons/sec/cm^2/sr) from RL signals was normalized to that of FL signals at each site and at each time point to account for the effect of CP9 on cell proliferation. The RL/FL ratios were normalized to that of time 0 h to monitor the individual change in Hsp90(α/β)/p23 interactions in each mouse over time. Results were expressed as mean±S.E.M for the control and treatment groups for Hsp90α/p23 (left panel) and Hsp90β/p23 interactions (right panel).\n(§2) To monitor the inhibition of Hsp90(α/β)/p23 interactions by CP9 in living mice, a second reporter (FL-eGFP) was introduced into the 293T cells stably expressing Hsp90(α/β)/p23 split RL reporters (now referred as 293T(α/β)—FG cells). Although ^18F-FLT has also been used to monitor tumor cell proliferation in small animals by PET (Tseng et al., (2005) J. Nucl. Med. 46: 1851-1857), FL imaging was used because of the higher sensitivity and ease of performing sequentially with RL imaging for Hsp90(α/β)/p23 interactions. […] Baseline RL and FL signals in each implanted tumor were determined upon i.v. substrate injection.\n(§3) Based on experience with the Hsp90 inhibitors 17-AAG and PU-H71, CP9 (80 mg/kg) (n=5) was tested in animal experiments by i.p. injection with four doses at […] post baseline imaging (FIG. 7A). An equal volume of DMSO was injected into the carrier control group (n=5, FIG. 7B). Mice treated with 75 mg/kg PU-H71 (n=2) served as positive controls. Mice were re-imaged for Hsp90(α/β)/p23 interactions and cell proliferation via RL (FIG. 5B, left panels) and FL (FIG. 5B, right panels) imaging at the time points indicated, respectively. To account for the effect of cell number on Hsp90(α/β)/p23 interactions, RL signals were normalized to FL signals for each tumor at each time point, prior to normalization to that of time 0 h.\n(§4) Mice were gas anesthetized using isofluorane (2% in 100% oxygen, 1 L/min) during all injection and imaging procedures and kept at 37° C. Mice were imaged using a cooled CCD camera (IVIS 200, Caliper Life Sciences, Mountain View, Calif.). […] Baseline RL activities in the implanted tumors in living mice were determined by i.v. injection of 30 μg cltz (in 150 μl of 5% ethanol: 95% PBS) and image acquisition of 3 mins. After a 30 mins wait for RL signals to decay, FL activities were determined by i.v. injection of 163 μg of D-Luc in 100 μl PBS with image acquisition of 10 sequences for 15 sec each to obtain the peak max radiance. […] Maximum radiance of RL was divided by that of FL signals at each time point, prior to normalization to that of time 0 hr for each individual mouse, and expressed as average radiance±S.E.M for each treatment group."}, "Hsp90α/p23 interactions": {"biological_target": "T2, Hsp90α/p23 interactions (Homo sapiens, UniProt P07900)", "T2 construct": "expressed in transfected cells; also with FL-eGFP reporter (293Tα-FG) and as xenografts in nude mice", "test": "RL/FL bioluminescence imaging of 293T xenografts in living mice", "assay_type": "in vivo", "settings": "CP9 80 mg/kg i.p.", "method": "as §1, §2, §3, §4"}, "[1]": {"test_system": "1975 lung cancer, 2008 ovarian cancer and HT29 colon cancer cells", "test": "3H-FDG cell uptake (glucose metabolism)", "assay_type": "cell-based", "settings": "24 h post treatment", "method": "FIG. 6B is a graph illustrating the effect of CP9 on glucose metabolism determined in 1975 lung cancer, 2008 ovarian cancer and HT29 colon cancer cells by ^3H-FDG cell uptake studies 24 h post treatment. Normal MEFs were used as a control. Results were expressed as mean counts/μg protein/initial dose±S.E.M. *, p<0.05 vs. carrier control treated cells.\nInhibition of glucose metabolism by CP9 in cell culture was monitored by cell uptake studies with ^3H-fluoro-deoxyglucose (^3H-FDG) as described in Dandekar et al. ((2007) J. Nucl. Med. 48: 602-607) as shown in FIG. 6B. PU-H71 was used as a positive control.\nTo determine the downstream effects of lead compounds on glucose metabolism, 1.5×10^5 293T, 1975 and 2008 and MEFs cells plated in 24-well plate for 24 h, prior to treatment with different concentrations of CP9 for 24 or 48 h and subsequent incubation with 1 μCi of ^3H-FDG in 500 μl of medium for 1 h at 37° C. Cells treated with 2.5 μM of PU-H71 served as a positive control. The total counts in each sample were normalized to that of the dose added to each well and to the amount of protein, and expressed as mean counts/dose/μg protein±S.E.M. Likewise, the effect of CP9 on cell proliferation was determined using 1 μCi of ^3H-FLT per well after 2 h of incubation at 37° C."}, "[2]": {"test_system": "Hsp90(α/β)/p23 interactions", "test": "BLI of lead compounds in intact 293T cells with split RL reporters", "assay_type": "cell-based, human", "method": "Bioluminescence signals were quantified and normalized for cell number and that of carrier control treated cells (right). Results were expressed as mean±S.E.M.\nTo determine the effect of lead compounds on disruption of Hsp90(α/β)/p23 interactions in intact cells, 3.5×10^4 293T cells stably transfected with split RL reporters as described in Chan et al., (2008) Cancer Res. 68: 216-226, were plated in each well in the 96-well black wall plate (Costar, Corning, N.Y.) and allowed to attach for 24 h, prior to treatment with different concentrations of the lead compounds for 24 h. The 10 μg/ml of ENDUREN® (in […] of cell culture medium) was added to each well for 1.5 h and RL activities were determined. BLI signals were normalized to that of cell number for each well (determined by Alamar Blue assay (Invitrogen, Carlsbad, Calif.)), prior to normalization to carrier control-treated cells."}}, "data": [{"smiles": "Cc1cc(NC(=O)CSc2nc(-c3cccs3)cc(C(F)(F)F)n2)no1", "note": "[CP9, N-(5-methylisoxazol-3-yl)-2-(4-(thiophen-2-yl)-6-(trifluoromethyl)pyrimidin-2-ylthio)acetamide]", "values": [{"measurement": "RL/FL ratio in Hsp90β/p23 xenografts, normalized to time 0 h", "setting": "Hsp90β/p23 interactions; 14 h", "result": "58±18", "unit": "%"}, {"measurement": "RL/FL ratio in Hsp90β/p23 xenografts, normalized to time 0 h", "setting": "Hsp90β/p23 interactions; 38 h", "result": "83±42", "unit": "%"}, {"measurement": "RL/FL ratio in Hsp90α/p23 xenografts, normalized to time 0 h", "setting": "Hsp90α/p23 interactions; 14 h", "result": "122±39", "unit": "%"}, {"measurement": "RL/FL ratio in Hsp90α/p23 xenografts, normalized to time 0 h", "setting": "Hsp90α/p23 interactions; 38 h, p<0.05 vs carrier control", "result": "79±19", "unit": "%"}, {"measurement": "3H-FDG uptake in the cancer cells", "setting": "[1]", "result": "decreased"}, {"measurement": "selectivity for Hsp90α/p23 BLI signals relative to Hsp90β/p23 interactions", "setting": "[2]; 293T cells", "result": "more selective for inhibition of Hsp90α/p23 BLI signals"}, {"measurement": "bioluminescence signals in 293T cells expressing Hsp90α/p23 and Hsp90β/p23 split RL reporters", "setting": "[2]; 24 h, normalized for cell number and carrier control", "result": "dose-dependent decrease"}]}]}
